Tests used:
[1] = tested on: Gram-positive S. mutans and Gram-negative E. coli bacteria; experiment: Peptide bacterial binding and aggregation studies; conditions: synthetic peptides
Procedure: For quantitative measurements of bacterial aggregation, we added 200 μl peptide stock solution (1 mg/ml in 10% DMSO) diluted with 300 μl TBS containing 0.1% v/v Tween 20 and 1 mM CaCl2 (TBS-TC) to 500 μl of the respective bacterial suspensions to obtain final peptide concentrations of […]. As controls, we used bacterial suspensions, to which 200 μl 10% (v/v %) DMSO in H2O and 300 μl TBS-TC were added. Bacterial aggregation was monitored by measuring the optical density at 700 nm in intervals of 1 min for 1 h in a spectrophotometer (UVICON 930, Kontron Instruments). For the semi-quantitative high-throughput competition assays, we first determined the allowed pH range for DMBT1pbs1-mediated aggregation of S. gordonii and E. coli by using TBS-TC adjusted with either HCl or NaOH. […] For monitoring competitive effects, we preincubated 20 μl of the DMBT1pbs1 stock solution (20 μg) with 20 μl of the respective substance solutions in 48-well microtiter plates at room temperature (RT) for 2 min. As reference served 20 μl 10% (v/v) DMSO solution in H2O mixed with 20 μl of the solvents of the respective substances. Afterwards, 100 μl of S. gordonii or E. coli (resuspended in TBS-TC or TBS-T, respectively, for the calcium-free assays) solution was added simultaneously to each well using a multichannel pipette. […]

[2] = biological target: HIV-gp120 (Human immunodeficiency virus type 1 group M subtype B, UniProt P04578); conditions: S. gordonii binding to immobilized SRCRP2 in absence and presence of HIV-gp120
Text: Left panel: peptide SRCRP2 (containing DMBT1pbs1) was immobilized on ELISA plates and bacterial binding (S. gordonii) was quantified in the absence and presence of different concentrations of HIV-gp120.

Sequence: GRVEVLYRGSW [DMBT1pbs1]
- bacterial binding and aggregation activity (Gram-positive and -negative bacteria) [1]: sufficient and necessary for interaction with Gram-positive and -negative bacteria
- HIV-gp120 binding activity [2]: exerts HIV-gp120 binding activity
